Experimental data published in PubChem BioAssay AID256 (DTP/NCI, 2004).
Values joined by “and” are separate entries in the source; they are usually repeats but may differ in a detail not shown here. Identical values can stand only once. Inconclusive results and toxic doses are left out.

Tested on: CD2F1 mice, L1210 leukemia ip, survival T/C
Assay: NCI In Vivo Anticancer Drug Screen. Data for tumor model L1210 Leukemia (intraperitoneal) in CD2F1 (CDF1) mice
Conditions: endpoint: mean survival time, higher = longer survival
Procedure, shortened: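 Tumor-bearing mice (transplanted tumor) were split into treated and vehicle control groups, and the measured endpoint of each treated group was divided by that of its vehicle controls.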

[1] = dose: 50.0 mg/kg/injection, schedule: Q04DX003 (ip), vehicle: saline with Tween-80
[2] = dose: 100.0 mg/kg/injection, schedule: Q04DX003 (ip), vehicle: saline with Tween-80
[3] = dose: 100.0 mg/kg/injection, schedule: Q04DX003 (ip), vehicle: saline
[4] = dose: 100.0 mg/kg/injection, schedule: Q01DX001 (ip), vehicle: saline with Tween-80
[5] = dose: 200.0 mg/kg/injection, schedule: Q01DX001 (ip), vehicle: saline with Tween-80
[6] = dose: 400.0 mg/kg/injection, schedule: Q01DX001 (ip), vehicle: saline with Tween-80
[7] = dose: 100.0 mg/kg/injection, schedule: Q01DX001 (ip), vehicle: saline
[8] = dose: 200.0 mg/kg/injection, schedule: Q01DX001 (ip), vehicle: saline
[9] = dose: 400.0 mg/kg/injection, schedule: Q01DX001 (ip), vehicle: saline
[10] = dose: 200.0 mg/kg/injection, schedule: Q04DX003 (ip), vehicle: saline with Tween-80
[11] = dose: 400.0 mg/kg/injection, schedule: Q04DX003 (ip), vehicle: saline with Tween-80
[12] = dose: 200.0 mg/kg/injection, schedule: Q04DX003 (ip), vehicle: saline
[13] = dose: 100.0 mg/kg/injection, schedule: Q01DX009 (ip), vehicle: saline with Tween-80
[14] = dose: 200.0 mg/kg/injection, schedule: Q01DX009 (ip), vehicle: saline with Tween-80
[15] = dose: 400.0 mg/kg/injection, schedule: Q01DX009 (ip), vehicle: saline with Tween-80
[16] = dose: 100.0 mg/kg/injection, schedule: Q04DX002 (ip), vehicle: saline with Tween-80

Cc1ccc(-n2c(=S)[nH]c3ccc(C)cc3c2=O)cc1
T/C (dose: 0.38 mg/kg/injection, schedule: Q01DX009 (ip), vehicle: saline with Tween-80): 90 % of control | T/C (dose: 0.75 mg/kg/injection, schedule: Q01DX009 (ip), vehicle: saline with Tween-80): 92 % of control | T/C (dose: 1.5 mg/kg/injection, schedule: Q01DX009 (ip), vehicle: saline with Tween-80): 98 % of control | T/C (dose: 1.56 mg/kg/injection, schedule: Q01DX009 (ip), vehicle: saline with Tween-80): 95 % of control | T/C (dose: 25.0 mg/kg/injection, schedule: Q04DX003 (ip), vehicle: saline with Tween-80): 92 % of control | T/C [1]: 90 % of control | T/C [2]: 87 % of control

CC(C(=O)c1ccccc1)N(C)C (stereo not given)
T/C [3]: 100 % of control

Cc1ccc([N+](=O)[O-])cc1NC(=O)Nc1cc([N+](=O)[O-])ccc1F
T/C (dose: 50.0 mg/kg/injection, schedule: Q01DX009 (ip), vehicle: Klucel (hydroxypropylcellulose) (HPC)): 112 % of control | T/C (dose: 100.0 mg/kg/injection, schedule: Q01DX009 (ip), vehicle: Klucel (hydroxypropylcellulose) (HPC)): 101 % of control | T/C (dose: 200.0 mg/kg/injection, schedule: Q01DX009 (ip), vehicle: Klucel (hydroxypropylcellulose) (HPC)): 101 % of control

CC1=C(O)C(=O)[C@@H]2O[C@@H]2C1=O
T/C (dose: 0.78 mg/kg/injection, schedule: Q01DX009 (ip), vehicle: saline): 98 % of control and 102 % of control | T/C (dose: 1.56 mg/kg/injection, schedule: Q01DX009 (ip), vehicle: saline): 101 % of control and 102 % of control | T/C (dose: 3.12 mg/kg/injection, schedule: Q01DX009 (ip), vehicle: saline): 96 % of control and 107 % of control | T/C (dose: 6.25 mg/kg/injection, schedule: Q01DX009 (ip), vehicle: saline): 98 % of control and 108 % of control | T/C (dose: 12.5 mg/kg/injection, schedule: Q01DX009 (ip), vehicle: saline): 108 % of control | T/C (dose: 25.0 mg/kg/injection, schedule: Q01DX009 (ip), vehicle: saline): 87 % of control

Cc1ccc(N2C(=O)CSC2=S)c(Br)c1
T/C [4]: 101 % of control | T/C [5]: 101 % of control | T/C [6]: 106 % of control

BrC1CCCC1
T/C [7]: 100 % of control | T/C [8]: 102 % of control | T/C [9]: 102 % of control

O=C1C(c2ccccc2)=C2C(=C1c1ccccc1)c1cccc3cccc2c13
T/C [2]: 92 % of control | T/C [10]: 90 % of control | T/C [11]: 92 % of control

Nc1cc(Cl)nnc1Cl
T/C (dose: 50.0 mg/kg/injection, schedule: Q01DX009 (ip), vehicle: other): 97 % of control | T/C (dose: 100.0 mg/kg/injection, schedule: Q01DX009 (ip), vehicle: other): 103 % of control | T/C [3]: 98 % of control | T/C (dose: 200.0 mg/kg/injection, schedule: Q01DX009 (ip), vehicle: other): 97 % of control | T/C [12]: 101 % of control

CCCCN(c1ccccc1)S(=O)(=O)c1ccc(Br)cc1
T/C [13]: 97 % of control | T/C [2]: 98 % of control | T/C [14]: 95 % of control | T/C [10]: 102 % of control | T/C [15]: 97 % of control | T/C [11]: 101 % of control

CC1(C)COC(C)(C(=O)O)OC1
T/C [2]: 98 % of control | T/C [10]: 98 % of control | T/C [11]: 96 % of control

Cc1c(O)c(N=NC(N)=S)c2ccccc2c1O
T/C [2]: 100 % of control | T/C [10]: 102 % of control | T/C [11]: 100 % of control

CC1(C)COC(c2ccccc2)OC1
T/C [4]: 95 % of control | T/C [5]: 103 % of control | T/C [6]: 101 % of control

OCC#CCOCC(O)CCl (stereo not given)
T/C (dose: 25.0 mg/kg/injection, schedule: Q01DX009 (ip), vehicle: water): 107 % of control | T/C (dose: 50.0 mg/kg/injection, schedule: Q01DX009 (ip), vehicle: water): 98 % of control | T/C (dose: 100.0 mg/kg/injection, schedule: Q01DX009 (ip), vehicle: water): 104 % of control | T/C (dose: 200.0 mg/kg/injection, schedule: Q01DX009 (ip), vehicle: water): 97 % of control

O=S(=O)(Cc1cc(-c2ccccc2)n[nH]1)c1ccccc1
T/C [7]: 96 % of control | T/C [8]: 95 % of control | T/C [9]: 98 % of control

CC1CN(C)CCN1C (stereo not given)
T/C (dose: 100.0 mg/kg/injection, schedule: Q01DX009 (ip), vehicle: saline): 100 % of control | T/C [3]: 104 % of control | T/C (dose: 200.0 mg/kg/injection, schedule: Q01DX009 (ip), vehicle: saline): 100 % of control | T/C [12]: 104 % of control | T/C (dose: 400.0 mg/kg/injection, schedule: Q01DX009 (ip), vehicle: saline): 98 % of control | T/C (dose: 400.0 mg/kg/injection, schedule: Q04DX003 (ip), vehicle: saline): 98 % of control

CC(C)(C)c1cc(C(C)(C)C)c(C(=O)O)c(C(C)(C)C)c1Cl
T/C [2]: 101 % of control | T/C [10]: 97 % of control | T/C [11]: 100 % of control

COc1ccc(CC2c3cc(OC)c(OC)cc3CCN2C(C)=O)cc1 (stereo not given)
T/C [2]: 101 % of control | T/C [10]: 100 % of control | T/C [11]: 100 % of control

CCCCCCCCN(C)N=Nc1ccc(C(N)=O)cc1
T/C (dose: 79.0 mg/kg/injection, schedule: Q01DX009 (ip), vehicle: Klucel (hydroxypropylcellulose) (HPC)): 104 % of control | T/C (dose: 118.0 mg/kg/injection, schedule: Q01DX009 (ip), vehicle: Klucel (hydroxypropylcellulose) (HPC)): 114 % of control | T/C (dose: 175.0 mg/kg/injection, schedule: Q01DX009 (ip), vehicle: Klucel (hydroxypropylcellulose) (HPC)): 117 % of control | T/C (dose: 177.0 mg/kg/injection, schedule: Q01DX009 (ip), vehicle: Klucel (hydroxypropylcellulose) (HPC)): 110 % of control | T/C (dose: 266.0 mg/kg/injection, schedule: Q01DX009 (ip), vehicle: Klucel (hydroxypropylcellulose) (HPC)): 122 % of control | T/C (dose: 400.0 mg/kg/injection, schedule: Q01DX009 (ip), vehicle: Klucel (hydroxypropylcellulose) (HPC)): 113 % of control and 118 % of control

CCOC(=O)CC(C)(CC(=O)OCC)C(C#N)C(=O)OCC (stereo not given)
T/C [2]: 116 % of control | T/C [10]: 119 % of control | T/C [11]: 120 % of control

COc1cc(C=Nc2cc(Br)cc(Br)c2)ccc1N(CCCl)CCCl
T/C (dose: 200.0 mg/kg/injection, schedule: Q01DX001 (ip), vehicle: other): 150 % of control

Cc1cc(C(=O)c2ccccn2)c2cc(Cl)cc(Cl)c2n1
T/C [13]: 93 % of control | T/C [2]: 88 % of control | T/C [14]: 91 % of control | T/C [10]: 94 % of control | T/C [15]: 87 % of control | T/C [11]: 94 % of control

[N-]=[N+]=CC(=O)c1c(Cl)n(-c2ccccc2)c2ccccc12
T/C [1]: 90 % of control | T/C [2]: 98 % of control | T/C [10]: 101 % of control

C=CCNC(=S)n1cnc(N)n1
T/C (dose: 25.0 mg/kg/injection, schedule: Q04DX002 (ip), vehicle: saline with Tween-80): 104 % of control | T/C (dose: 50.0 mg/kg/injection, schedule: Q04DX002 (ip), vehicle: saline with Tween-80): 96 % of control | T/C [16]: 104 % of control and 105 % of control

O=C(OCCC[P+](c1ccccc1)(c1ccccc1)c1ccccc1)c1ccccc1
T/C (dose: 6.25 mg/kg/injection, schedule: Q01DX001 (ip), vehicle: saline with Tween-80): 109 % of control | T/C (dose: 6.25 mg/kg/injection, schedule: Q01DX009 (ip), vehicle: saline with Tween-80): 110 % of control | T/C (dose: 12.5 mg/kg/injection, schedule: Q01DX001 (ip), vehicle: saline with Tween-80): 114 % of control | T/C (dose: 12.5 mg/kg/injection, schedule: Q01DX009 (ip), vehicle: saline with Tween-80): 114 % of control | T/C (dose: 25.0 mg/kg/injection, schedule: Q01DX001 (ip), vehicle: saline with Tween-80): 115 % of control | T/C (dose: 25.0 mg/kg/injection, schedule: Q01DX009 (ip), vehicle: saline with Tween-80): 112 % of control

O=[N+]([O-])c1ccc(Cc2ncnc3c2ncn3C2OC(CO)C(O)C2O)cc1 (stereo not given)
T/C (dose: 12.5 mg/kg/injection, schedule: Q01DX005 (ip), vehicle: distilled water + Tween-80): 103 % of control | T/C (dose: 25.0 mg/kg/injection, schedule: Q01DX005 (ip), vehicle: distilled water + Tween-80): 105 % of control | T/C (dose: 50.0 mg/kg/injection, schedule: Q01DX005 (ip), vehicle: distilled water + Tween-80): 108 % of control | T/C (dose: 100.0 mg/kg/injection, schedule: Q01DX005 (ip), vehicle: distilled water + Tween-80): 120 % of control | T/C (dose: 200.0 mg/kg/injection, schedule: Q01DX005 (ip), vehicle: distilled water + Tween-80): 120 % of control

COc1ccc(C2=CSc3ccccc3N2)cc1
T/C [16]: 96 % of control | T/C (dose: 200.0 mg/kg/injection, schedule: Q04DX002 (ip), vehicle: saline with Tween-80): 104 % of control
